Values quoted from earlier work in patent US4814324A, “Sterol inhibitors of testosterone 5α-reductase” (Merck & Co., Inc., priority 1987, dated 1989).

How the values were obtained:
[1] = tested on: testosterone-5α-reductase; settings: Voigt and Hsia, Endocrinology, 92, 1216 (1973)
[2] = tested on: female hamster flank organ; settings: Voigt and Hsia; for response elicited by 5α-dihydrotestosterone (flank organ enlargement) / response elicited by testosterone (flank organ enlargement): topical; for response elicited by 5α-dihydrotestosterone (flank organ enlargement): concomitant with 5α-dihydrotestosterone; for response elicited by testosterone (flank organ enlargement): concomitant with testosterone; for enlargement of the female hamster flank organ: topical application alone

Compound: C[C@]12CC[C@H]3[C@@H](CCC4=CC(=O)CC[C@@]43C)[C@@H]1CC[C@@H]2C(=O)O [4-androsten-3-one-17β-carboxylic acid]
- testosterone-5α-reductase inhibition in vitro [1]: active inhibitors
- response elicited by 5α-dihydrotestosterone (flank organ enlargement) [2]: did not inhibit the response elicited by 5α-dihydrotestosterone
- response elicited by testosterone (flank organ enlargement) [2]: inhibited the response elicited by testosterone

Compound: C[C@]12CCC(=O)C[C@@H]1CC[C@@H]1[C@@H]2CC[C@]2(C)[C@@H](O)CC[C@@H]12 [5α-dihydrotesterone, 5α-dihydrotestosterone]
- enlargement of the female hamster flank organ [2]: caused enlargement of the female hamster flank organ

Compound: COC(=O)[C@H]1CC[C@H]2[C@@H]3CCC4=CC(=O)CC[C@]4(C)[C@H]3CC[C@]12C [methyl 4-androsten-3-one-17β-carboxylate]
- testosterone-5α-reductase inhibition in vitro [1]: active inhibitors
- response elicited by 5α-dihydrotestosterone (flank organ enlargement) [2]: did not inhibit the response elicited by 5α-dihydrotestosterone
- response elicited by testosterone (flank organ enlargement) [2]: inhibited the response elicited by testosterone

Compound: C[C@]12CC[C@H]3[C@@H](CCC4=CC(=O)CC[C@@]43C)[C@@H]1CC[C@@H]2O [testosterone]
- enlargement of the female hamster flank organ [2]: caused enlargement of the female hamster flank organ
